The values below come from patent US20170334899A1, “AMINO-SUBSTITUTED ISOTHIAZOLES” (Bayer Pharma Aktiengesellschaft, priority 2014, published 2017).

pIC50: −log10 of the molar value.

The test system of experiment [1] is human cervical tumor cell line HeLa (ATCC CCL-2). As to the kind of experiment: SAC-Formation - Nocodazole-Induced Assay. Type of experiment: cell-based. Particulars: Homo sapiens, HeLa, 24 h, HeLa cells, nocodazole 0.1 μg/ml together with test compound, decrease of mitotic cells (phospho-histone H3 Ser10). In short, it runs like this:
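Loss of phospho-histone H3 Ser10-positive cells, counted against Hoechst-stained nuclei by high-content imaging, marked mitotic breakthrough. Compounds (0.005–20 μM, 0.5% DMSO) were co-dosed with 0.1 μg/ml nocodazole onto HeLa cells for 24 h at 37 °C. Curves were fitted with a four-parameter Hill equation.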

The target in experiment [2] is T1, catalytic domain of human Bub1 (amino acids 704-1085) (Homo sapiens, UniProt O43683).
T1 construct: catalytic domain of human Bub1 (amino acids 704-1085); His6 (N); made in house; host or cells: insect cells (Hi5)
T1 sequence (O43683 704-1085): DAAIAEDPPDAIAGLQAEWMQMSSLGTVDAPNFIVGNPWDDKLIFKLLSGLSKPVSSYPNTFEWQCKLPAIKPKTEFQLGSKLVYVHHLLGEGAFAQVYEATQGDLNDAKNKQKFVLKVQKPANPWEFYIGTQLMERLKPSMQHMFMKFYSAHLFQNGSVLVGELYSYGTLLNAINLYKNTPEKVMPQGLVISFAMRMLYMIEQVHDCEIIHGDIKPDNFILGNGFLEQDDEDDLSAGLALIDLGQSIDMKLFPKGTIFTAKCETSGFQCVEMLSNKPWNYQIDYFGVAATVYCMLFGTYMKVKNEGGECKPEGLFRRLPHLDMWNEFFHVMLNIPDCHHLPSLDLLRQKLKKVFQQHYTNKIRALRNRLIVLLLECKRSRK
Briefly: Bub1 kinase assay (TR-FRET). The class given is biochemical. Particulars: 10 μM ATP, avg, read-out: Bub1 avg (IC50 [mol/l]). In short, it runs like this: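 Readout is the 665/620 nm TR-FRET ratio from anti-phosphoserine antibody, Eu-labelled anti-mouse IgG and streptavidin-XL665, scaled between no-enzyme and uninhibited controls. Reaction: 1 μM biotinylated peptide, 10 μM ATP, 60 min, 22 °C, after 15 min compound preincubation with His6-Bub1 (704-1085, insect-expressed, ~200 ng/ml).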
In general terms: TR-FRET usually uses a lanthanide donor and a delayed reading to cut background.

`Cc1nsc(Nc2cncc(C(F)(F)F)n2)c1C(=O)Nc1ccc(OC2CCNCC2)nc1` [Example 13, 3-Methyl-N-[6-(piperidin-4-yloxy)pyridin-3-yl]-5-{[6-(trifluoromethyl)pyrazin-2-yl]-amino}-1,2-thiazole-4-carboxamide]: the pIC50 in experiment [1] is 5.34; in experiment [2], at most 4.70.

As to `Cc1nsc(Nc2cncc(C(F)(F)F)n2)c1C(=O)Nc1ccc(OC2CCN(CCF)CC2)nc1` [Example 14, N-(6-{[1-(2-Fluoroethyl)piperidin-4-yl]oxy}pyridin-3-yl)-3-methyl-5-{[6-(trifluoro-methyl)pyrazin-2-yl]amino}-1,2-thiazole-4-carboxamide], the pIC50 was 6.03 in experiment [1] and at most 4.70 in experiment [2].

On to `Cc1nsc(Nc2cncc(C(F)(F)F)n2)c1C(=O)Nc1ccc(OC2CCN(CC(F)(F)F)CC2)nc1` [Example 16, 3-Methyl-N-(6-{[1-(2,2,2-trifluoroethyl)piperidin-4-yl]oxy}pyridin-3-yl)-5-{[6-(trifluoromethyl)pyrazin-2-yl]amino}-1,2-thiazole-4-carboxamide], for which the pIC50 is 7.39 in experiment [1] and at most 4.70 in experiment [2].

Take `CC(=O)N1CCC(Oc2ccc(NC(=O)c3c(C)nsc3Nc3cncc(C(F)(F)F)n3)cn2)CC1` [Example 17, N-{6-[(1-Acetylpiperidin-4-yl)oxy]pyridin-3-yl}-3-methyl-5-{[6-(trifluoromethyl)-pyrazin-2-yl]amino}-1,2-thiazole-4-carboxamide]: the pIC50 is 6.68 in experiment [1] and at most 4.70 in experiment [2].

Turning to `Cc1nsc(Nc2cnc3ccccc3n2)c1C(=O)Nc1ccc(OC2CCN(C(=O)OC(C)(C)C)CC2)nc1` [Example 18, tert-Butyl 4-{[5-({[3-methyl-5-(quinoxalin-2-ylamino)-1,2-thiazol-4-yl]carbonyl}-amino)pyridin-2-yl]oxy}piperidine-1-carboxylate], the pIC50 in experiment [1] is 7.36; in experiment [2], at most 4.70.

For `Cc1nsc(Nc2cnc3ccccc3n2)c1C(=O)Nc1ccc(OC2CCNCC2)nc1` [Example 19, 3-Methyl-N-[6-(piperidin-4-yloxy)pyridin-3-yl]-5-(quinoxalin-2-ylamino)-1,2-thiazole-4-carboxamide], the pIC50 in experiment [1] is 6.49; in experiment [2], at most 4.70.

For the compound `Cc1nsc(Nc2cnc3ccccc3n2)c1C(=O)Nc1ccc(OC2CCN(CC(F)F)CC2)nc1` [Example 20, N-(6-{[1-(2,2-difluoroethyl)piperidin-4-yl]oxy}pyridin-3-yl)-3-methyl-5-(quinoxalin-2-ylamino)-1,2-thiazole-4-carboxamide], the figures for the pIC50 in experiment [1] and in experiment [2] were 7.28 and at most 4.70, respectively.

Take `CCN(CC)CCNC(=O)c1cccc(NC(=O)c2c(C)nsc2Nc2cc(C#N)ccn2)c1` [Example 174, 5-[(4-cyanopyridin-2-yl)amino]-N-(3-{[2-(diethylamino)ethyl]carbamoyl}phenyl)-3-methyl-1,2-thiazole-4-carboxamide]: the pIC50 in experiment [1] was 5.24; in experiment [2] it was below 4.70.

As to `Cc1nsc(Nc2cc(C#N)ccn2)c1C(=O)Nc1cccc(C(=O)NC2CC2)c1` [Example 175, 5-[(4-cyanopyridin-2-yl)amino]-N-[3-(cyclopropylcarbamoyl)phenyl]-3-methyl-1,2-thiazole-4-carboxamide], the pIC50 in experiment [1] was 5.66.

On to `COC(=O)CCc1cccc(NC(=O)c2c(C)nsc2Nc2ccc(C#N)cn2)c1` [Example 176, methyl 3-{3-[({5-[(5-cyanopyridin-2-yl)amino]-3-methyl-1,2-thiazol-4-yl}carbonyl)amino]phenyl}propanoate], for which the figures for the pIC50 in experiment [1] and in experiment [2] were 6.64 and below 4.70, respectively.

Take `Cc1nsc(Nc2cc(C#N)ccn2)c1C(=O)Nc1ccc(NC(=O)OC(C)(C)C)cc1` [Example 177, tert-butyl {4-[({5-[(4-cyanopyridin-2-yl)amino]-3-methyl-1,2-thiazol-4-yl}carbonyl)amino]phenyl}carbamate]: the pIC50 in experiment [1] is 5.41; in experiment [2], below 4.70.

In the case of `Cc1nsc(Nc2cnc3ccccc3n2)c1C(=O)Nc1cccc(NC(=O)OC(C)(C)C)c1` [Example 178, tert-butyl [3-({[3-methyl-5-(quinoxalin-2-ylamino)-1,2-thiazol-4-yl]carbonyl}amino)-phenyl]carbamate], the values for the pIC50 in experiment [1] and in experiment [2] were 6.68 and below 4.70, respectively.

For the compound `Cc1nsc(Nc2ccc(C#N)cn2)c1C(=O)Nc1cccc(NC(=O)OC(C)(C)C)c1` [Example 179, tert-butyl {3-[({5-[(5-cyanopyridin-2-yl)amino]-3-methyl-1,2-thiazol-4-yl}carbonyl)amino]phenyl}carbamate], the pIC50 was 6.49 in experiment [1] and below 4.70 in experiment [2].

With `Cc1nsc(Nc2ccc(C#N)cn2)c1C(=O)Nc1cccc(N)c1` [Example 180, N-(3-aminophenyl)-5-[(5-cyanopyridin-2-yl)amino]-3-methyl-1,2-thiazole-4-carboxamide], the pIC50 is 5.89 in experiment [1] and below 4.70 in experiment [2].

In the case of `Cc1nsc(Nc2cnc3ccccc3n2)c1C(=O)Nc1ccc(C(=O)OC(C)(C)C)cc1` [Example 181, tert-butyl 4-({[3-methyl-5-(quinoxalin-2-ylamino)-1,2-thiazol-4-yl]carbonyl}amino)benzoate], the pIC50 in experiment [1] was 6.59; in experiment [2], below 4.70.

As to `Cc1nsc(Nc2cc(C#N)ccn2)c1C(=O)Nc1ccc(C(=O)OC(C)(C)C)cc1` [Example 182, tert-butyl 4-[({5-[(4-cyanopyridin-2-yl)amino]-3-methyl-1,2-thiazol-4-yl}carbonyl)amino]benzoate], the pIC50 was 7.60 in experiment [1] and below 4.70 in experiment [2].

As to `Cc1nsc(Nc2cc(C#N)ccn2)c1C(=O)Nc1cccc(NC(=O)C(C)(C)C)c1` [Example 183, 5-[(4-cyanopyridin-2-yl)amino]-N-{3-[(2,2-dimethylpropanoyl)amino]phenyl}-3-methyl-1,2-thiazole-4-carboxamide], the pIC50 in experiment [1] was 5.82; in experiment [2] it was below 4.70.

For the compound `Cc1nsc(Nc2cnccn2)c1C(=O)Nc1ccc(C(=O)OC(C)(C)C)cc1` [Example 184, tert-butyl 4-({[3-methyl-5-(pyrazin-2-ylamino)-1,2-thiazol-4-yl]carbonyl}amino)benzoate], the values for the pIC50 in experiment [1] and in experiment [2] were 7.06 and below 4.70, respectively.

For the compound `Cc1nsc(Nc2cnc3ccccc3n2)c1C(=O)Nc1ccc(NC(=O)C(C)(C)C)cc1` [Example 185, N-{4-[(2,2-dimethylpropanoyl)amino]phenyl}-3-methyl-5-(quinoxalin-2-ylamino)-1,2-thiazole-4-carboxamide], the pIC50 in experiment [1] was 5.80; in experiment [2] it was below 4.70.

For the compound `Cc1nsc(Nc2cnc3ccccc3n2)c1C(=O)Nc1cccc(NC(=O)C(C)(C)C)c1` [Example 186, N-{3-[(2,2-dimethylpropanoyl)amino]phenyl}-3-methyl-5-(quinoxalin-2-ylamino)-1,2-thiazole-4-carboxamide], the figures for the pIC50 in experiment [1] and in experiment [2] were 6.20 and below 4.70, respectively.

`Cc1nsc(Nc2cnc3ccccc3n2)c1C(=O)Nc1ccc(C(=O)O)cc1` [Example 187, 4-({[3-methyl-5-(quinoxalin-2-ylamino)-1,2-thiazol-4-yl]carbonyl}amino)benzoic acid]: the values for the pIC50 in experiment [1] and in experiment [2] were 5.66 and 5.42, respectively.

On to `Cc1nsc(Nc2cnc3ccccc3n2)c1C(=O)Nc1ccccc1S(C)(=O)=O` [Example 188, 3-methyl-N-[2-(methylsulfonyl)phenyl]-5-(quinoxalin-2-ylamino)-1,2-thiazole-4-carboxamide], for which the pIC50 was 6.64 in experiment [1] and below 4.70 in experiment [2].

Consider `Cc1nsc(Nc2cncc(C(F)(F)F)n2)c1C(=O)Nc1ccc(OC2CCCN(C(=O)OC(C)(C)C)C2)nc1` (stereo not shown) [Example 189, tert-butyl 3-[(5-{[(3-methyl-5-{[6-(trifluoromethyl)pyrazin-2-yl]amino}-1,2-thiazol-4-yl)carbonyl]amino}pyridin-2-yl)oxy]piperidine-1-carboxylate], for which the pIC50 in experiment [1] was 6.82; in experiment [2], below 4.70.

As for `Cc1nsc(Nc2cncc(C(F)(F)F)n2)c1C(=O)Nc1ccc(OCCCNC(=O)OC(C)(C)C)nc1` [Example 190, tert-butyl {3-[(5-{[(3-methyl-5-{[6-(trifluoromethyl)pyrazin-2-yl]amino}-1,2-thiazoL-4-yl)carbonyl]amino}pyridin-2-yl)oxy]propyl}carbamate], the pIC50 is 7.12 in experiment [1] and below 4.70 in experiment [2].

As for `Cc1nsc(Nc2cncc(C(F)(F)F)n2)c1C(=O)Nc1ccc(OCCNC(=O)OC(C)(C)C)nc1` [Example 191, tert-butyl {2-[(5-{[(3-methyl-5-{[6-(trifluoromethyl)pyrazin-2-yl]amino}-1,2-thiazol-4-yl)carbonyl]amino}pyridin-2-yl)oxy]ethyl}carbamate], the pIC50 is 7.23 in experiment [1] and below 4.70 in experiment [2].

As for `Cc1nsc(Nc2cnc(C(F)(F)F)cn2)c1C(=O)Nc1ccc(OCCNC(=O)OC(C)(C)C)nc1` [Example 192, tert-butyl {2-[(5-{[(3-methyl-5-{[5-(trifluoromethyl)pyrazin-2-yl]amino}-1,2-thiazol-4-yl)carbonyl]amino}pyridin-2-yl)oxy]ethyl}carbamate], the pIC50 in experiment [1] was 7.43; in experiment [2], below 4.70.

In the case of `Cc1nsc(Nc2cnc(C(F)(F)F)cn2)c1C(=O)Nc1cccc(S(C)(=O)=O)c1` [Example 195, 3-methyl-N-[3-(methylsulfonyl)phenyl]-5-{[5-(trifluoromethyl)pyrazin-2-yl]amino}-1,2-thiazole-4-carboxamide], the pIC50 in experiment [1] is 6.18.
